This note sets out measurements from patent US9932340B2, “Substituted indoles” (AbbVie Inc., priority 2014, dated 2018).

Sequence of SUV420H1 enzyme (Q4FZB7 whole entry): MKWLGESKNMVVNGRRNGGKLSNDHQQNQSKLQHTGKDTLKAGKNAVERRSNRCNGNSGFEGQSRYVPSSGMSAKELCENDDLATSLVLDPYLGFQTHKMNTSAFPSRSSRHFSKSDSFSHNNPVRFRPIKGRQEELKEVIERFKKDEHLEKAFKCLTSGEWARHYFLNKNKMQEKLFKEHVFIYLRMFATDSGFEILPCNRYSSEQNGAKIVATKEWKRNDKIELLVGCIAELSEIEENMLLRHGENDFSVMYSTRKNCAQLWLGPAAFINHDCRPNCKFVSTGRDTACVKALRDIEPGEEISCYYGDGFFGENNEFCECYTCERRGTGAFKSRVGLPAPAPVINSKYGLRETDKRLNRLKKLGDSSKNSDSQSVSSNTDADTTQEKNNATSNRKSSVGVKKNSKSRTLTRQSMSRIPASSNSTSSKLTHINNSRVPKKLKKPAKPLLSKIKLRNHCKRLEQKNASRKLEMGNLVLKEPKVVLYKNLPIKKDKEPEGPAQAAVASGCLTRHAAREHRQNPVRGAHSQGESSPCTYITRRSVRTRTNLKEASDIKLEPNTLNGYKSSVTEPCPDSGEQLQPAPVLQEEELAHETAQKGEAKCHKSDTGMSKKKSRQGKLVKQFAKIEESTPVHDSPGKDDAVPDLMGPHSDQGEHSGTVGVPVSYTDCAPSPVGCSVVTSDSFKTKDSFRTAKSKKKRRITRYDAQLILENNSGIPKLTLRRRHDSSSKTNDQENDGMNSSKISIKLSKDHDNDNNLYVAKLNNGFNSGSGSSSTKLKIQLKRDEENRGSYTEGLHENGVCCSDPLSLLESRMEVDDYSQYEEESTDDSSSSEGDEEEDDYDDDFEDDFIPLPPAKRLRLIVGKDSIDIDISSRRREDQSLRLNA

The target in the assay is SUV420H1 enzyme (Homo sapiens, UniProt Q4FZB7). In words: TR-FRET SAH SUV420H1 enzyme inhibition assay. Format: biochemical. Particulars: Histone Peptide H4(8-30)me1 and SAM, overnight at room temp, TR-FRET detection of SAH, read-out: TR-FRET SAH_SUV420H1 IC50. In a few lines:
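SUV420H1 (90 nM) preincubated 30 min with compound (3-fold dilutions, 50 to 0.00075 μM), then H4(8-30)me1 peptide 5 nM and SAM 4 nM added, overnight at room temp. SAH product detected by TR-FRET with Tb anti-SAH antibody and Oregon Green-SAH in RIPA buffer, 4 h; IC50 from Hill fit, asymptotes fixed 0-100%.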
Consider `N#Cc1cccc(-c2ccc(Cn3cnc4c(N)ncnc43)c3[nH]c(CN)cc23)c1` [Example 83, 3-{2-(aminomethyl)-7-[(6-amino-9H-purin-9-yl)methyl]-1H-indol-4-yl}benzonitrile], for which the IC50 worked out at 831 nM. To `CCNC(=O)c1cccc(-c2cc(Cn3cnc4c(N)ncnc43)c3[nH]c(CN)cc3c2)c1` [Example 46, 3-{2-(aminomethyl)-7-[(6-amino-9H-purin-9-yl)methyl]-1H-indol-5-yl}-N-ethylbenzamide] belongs 541 nM; to `Nc1ncnc2c1ncn2Cc1cc(Cl)cc2cc(CNC(=O)Cc3cccc(F)c3)[nH]c12` [Example 255, N-({7-[(6-amino-9H-purin-9-yl)methyl]-5-chloro-1H-indol-2-yl}methyl)-2-(3-fluorophenyl)acetamide], 15500 nM; to `CCCC(=O)NCc1cc2cc(Cl)cc(Cn3cnc4c(N)ncnc43)c2[nH]1` [Example 98, N-({7-[(6-amino-9H-purin-9-yl)methyl]-5-chloro-1H-indol-2-yl}methyl)butanamide], 11800 nM. As for `Nc1ncnc2c1ncn2Cc1cc(Cl)cc2cc(CNCc3cccc(OCCN4CCCCC4)c3)[nH]c12` [Example 325, 9-({5-chloro-2-[({3-[2-(piperidin-1-yl)ethoxy]benzyl}amino)methyl]-1H-indol-7-yl}methyl)-9H-purin-6-amine], the IC50 amounted to 3120 nM. Regarding `Nc1ncnc2c1ncn2Cc1cc(Cl)cc2cc(CNCc3c(Cl)cccc3Cl)[nH]c12` [Example 211, 9-[(5-chloro-2-{[(2,6-dichlorobenzyl)amino]methyl}-1H-indol-7-yl)methyl]-9H-purin-6-amine], the IC50 amounted to 9330 nM. To `Nc1ncnc2c1ncn2Cc1cc(Cl)cc2cc(CNC(=O)c3ccc(Cl)cc3)[nH]c12` [Example 221, N-({7-[(6-amino-9H-purin-9-yl)methyl]-5-chloro-1H-indol-2-yl}methyl)-4-chlorobenzamide] belongs 6240 nM. Take `Nc1ncnc2c1ncn2Cc1cc(Cl)cc2cc(CNC(=O)C3CC3)[nH]c12` [Example 107, N-({7-[(6-amino-9H-purin-9-yl)methyl]-5-chloro-1H-indol-2-yl}methyl)cyclopropanecarboxamide]: the concentration for half-maximal inhibition (IC50) was 10900 nM.

Turning to `Cn1ccc(C(=O)NCc2cc3cc(Cl)cc(Cn4cnc5c(N)ncnc54)c3[nH]2)n1` [Example 151, N-({7-[(6-amino-9H-purin-9-yl)methyl]-5-chloro-1H-indol-2-yl}methyl)-1-methyl-1H-pyrazole-3-carboxamide], the IC50 is 6750 nM. With `Nc1ncnc2c1ncn2Cc1cc(Cl)cc2cc(CNC(=O)c3cnoc3C3CC3)[nH]c12` [Example 189, N-({7-[(6-amino-9H-purin-9-yl)methyl]-5-chloro-1H-indol-2-yl}methyl)-5-cyclopropyl-1,2-oxazole-4-carboxamide], the IC50 came to 3360 nM. To `COc1cccc(-c2ccc(Cn3cnc4c(N)ncnc43)c3[nH]c(CN)cc23)c1` [Example 79, 9-{[2-(aminomethyl)-4-(3-methoxyphenyl)-1H-indol-7-yl]methyl}-9H-purin-6-amine] belongs 548 nM; to `Nc1ncnc2c1ncn2Cc1cc(Cl)cc2cc(CNC(=O)c3cn[nH]c3)[nH]c12` [Example 143, N-({7-[(6-amino-9H-purin-9-yl)methyl]-5-chloro-1H-indol-2-yl}methyl)-1H-pyrazole-4-carboxamide], 24000 nM; to `N#CCc1ccc(-c2cc(Cn3cnc4c(N)ncnc43)c3[nH]c(CN)cc3c2)cc1` [Example 45, (4-{2-(aminomethyl)-7-[(6-amino-9H-purin-9-yl)methyl]-1H-indol-5-yl}phenyl)acetonitrile], 356 nM.

Take `Nc1nc(C2CC2)nc2c1ncn2Cc1cccc2cc[nH]c12` [Example 6, 2-cyclopropyl-9-(1H-indol-7-ylmethyl)-9H-purin-6-amine]: the IC50 was found to be 1460 nM. Next, `Cc1noc(C)c1C(=O)NCc1cc2cc(-c3cccc(C(=O)N4CCOCC4)c3)cc(Cn3cnc4c(N)ncnc43)c2[nH]1` [Example 180, N-({7-[(6-amino-9H-purin-9-yl)methyl]-5-[3-(morpholin-4-ylcarbonyl)phenyl]-1H-indol-2-yl}methyl)-3,5-dimethyl-1,2-oxazole-4-carboxamide]: 130 nM; `CCc1ccc(Cn2cnc3c(N)ncnc32)c2[nH]c(CN)cc12` [Example 64, 9-{[2-(aminomethyl)-4-ethyl-1H-indol-7-yl]methyl}-9H-purin-6-amine]: 3080 nM.

On to `CC(C)(C)OC(=O)CNCc1cc2cc(Cl)cc(Cn3cnc4c(N)ncnc43)c2[nH]1` [Example 106, tert-butyl [({7-[(6-amino-9H-purin-9-yl)methyl]-5-chloro-1H-indol-2-yl}methyl)amino]acetate], for which the IC50 is 3320 nM.

As for `CC(C)CC(=O)NCc1cc2cc(Cl)cc(Cn3cnc4c(N)ncnc43)c2[nH]1` [Example 102, N-({7-[(6-amino-9H-purin-9-yl)methyl]-5-chloro-1H-indol-2-yl}methyl)-3-methylbutanamide], the IC50 stood at 6360 nM. To `Nc1ncnc2c1ncn2Cc1cc(Cl)cc2cc(CNC(=O)c3cscn3)[nH]c12` [Example 140, N-({7-[(6-amino-9H-purin-9-yl)methyl]-5-chloro-1H-indol-2-yl}methyl)-1,3-thiazole-4-carboxamide] belongs 6090 nM; to `Nc1ncnc2c1ncn2Cc1cc(Cl)cc2cc(CNC(=O)c3ccc4nc[nH]c4n3)[nH]c12` [Example 330, N-({7-[(6-amino-9H-purin-9-yl)methyl]-5-chloro-1H-indol-2-yl}methyl)-3H-imidazo[4,5-b]pyridine-5-carboxamide], 1060 nM; to `Nc1ncnc2c1ncn2Cc1cc(Cl)cc2cc(CNC(=O)c3cnsc3)[nH]c12` [Example 139, N-({7-[(6-amino-9H-purin-9-yl)methyl]-5-chloro-1H-indol-2-yl}methyl)-1,2-thiazole-4-carboxamide], 767 nM. Next, `Cc1cc(C#N)ccc1C(=O)NCc1cc2cc(C3=CCN(C(=O)OC(C)(C)C)CC3)cc(Cn3cnc4c(N)ncnc43)c2[nH]1` [Example 308]: 50 nM; `Cn1ncc2ccc(C(=O)NCc3cc4cc(Cl)cc(Cn5cnc6c(N)ncnc65)c4[nH]3)cc21` [Example 360, N-({7-[(6-amino-9H-purin-9-yl)methyl]-5-chloro-1H-indol-2-yl}methyl)-1-methyl-1H-indazole-6-carboxamide]: 747 nM. Next, `Nc1ncnc2c1ncn2Cc1cc(Cl)cc2cc(CNC(=O)c3ccsc3)[nH]c12` [Example 145, N-({7-[(6-amino-9H-purin-9-yl)methyl]-5-chloro-1H-indol-2-yl}methyl)thiophene-3-carboxamide]: 2400 nM; `CN(C)C(=O)c1ccc(-c2ccc(Cn3cnc4c(N)ncnc43)c3[nH]c(CN)cc23)cc1` [Example 86, 4-{2-(aminomethyl)-7-[(6-amino-9H-purin-9-yl)methyl]-1H-indol-4-yl}-N,N-dimethylbenzamide]: 915 nM; `CC(=O)N1CC=C(c2cc(Cn3cnc4c(N)ncnc43)c3[nH]c(CN)cc3c2)CC1` [Example 15, 1-[4-{2-(aminomethyl)-7-[(6-amino-9H-purin-9-yl)methyl]-1H-indol-5-yl}-3,6-dihydropyridin-1(2H)-yl]ethanone]: 154 nM. In the case of `Cc1noc(C)c1C(=O)NCc1cc2cc(-c3ccccc3)cc(Cn3cnc4c(N)ncnc43)c2[nH]1` [Example 164, N-({7-[(6-amino-9H-purin-9-yl)methyl]-5-phenyl-1H-indol-2-yl}methyl)-3,5-dimethyl-1,2-oxazole-4-carboxamide], the IC50 was 139 nM. Turning to `CC(=O)NCc1cc2cc(Cl)cc(Cn3cnc4c(N)ncnc43)c2[nH]1` [Example 92, N-({7-[(6-amino-9H-purin-9-yl)methyl]-5-chloro-1H-indol-2-yl}methyl)acetamide], the 50% inhibitory concentration (IC50) was > 50000 nM. Next, `NCc1cc2c(Cl)ccc(Cn3cnc4c(N)ncnc43)c2[nH]1` [Example 62, 9-{[2-(aminomethyl)-4-chloro-1H-indol-7-yl]methyl}-9H-purin-6-amine]: 1120 nM; `NCc1cc2c(-c3ccccc3F)ccc(Cn3cnc4c(N)ncnc43)c2[nH]1` [Example 74, 9-{[2-(aminomethyl)-4-(2-fluorophenyl)-1H-indol-7-yl]methyl}-9H-purin-6-amine]: 1180 nM. Next, `Cc1nocc1C(=O)NCc1cc2cc(Cl)cc(Cn3cnc4c(N)ncnc43)c2[nH]1` [Example 150, N-({7-[(6-amino-9H-purin-9-yl)methyl]-5-chloro-1H-indol-2-yl}methyl)-3-methyl-1,2-oxazole-4-carboxamide]: 382 nM; “4-(aminomethyl)-N-({7-[(6-amino-9H-purin-9-yl)methyl]-5-(4,4-difluorocyclohexyl)-1H-indol-2-yl}methyl)-2-methylbenzamide [Example 301]”: 750 nM. As for `Nc1ncnc2c1ncn2Cc1cc(Cl)cc2cc(CO)[nH]c12` [Example 7, {7-[(6-amino-9H-purin-9-yl)methyl]-5-chloro-1H-indol-2-yl}methanol], the IC50 amounted to 22200 nM. Next, `Nc1ncnc2c1ncn2Cc1cc(Cl)cc2cc(CNC(=O)c3ccccc3C(F)(F)F)[nH]c12` [Example 257, N-({7-[(6-amino-9H-purin-9-yl)methyl]-5-chloro-1H-indol-2-yl}methyl)-2-(trifluoromethyl)benzamide]: 493 nM. To `Nc1ncnc2c1ncn2Cc1cc(Cl)cc2cc(CNCc3c(F)cccc3Cl)[nH]c12` [Example 215, 9-[(5-chloro-2-{[(2-chloro-6-fluorobenzyl)amino]methyl}-1H-indol-7-yl)methyl]-9H-purin-6-amine] belongs 3910 nM.

Turning to `NCc1cc2cc(C3=CCC(F)(F)CC3)cc(Cn3cnc4c(N)ncnc43)c2[nH]1` [Example 14, 9-{[2-(aminomethyl)-5-(4,4-difluorocyclohex-1-en-1-yl)-1H-indol-7-yl]methyl}-9H-purin-6-amine], the half-inhibitory concentration (IC50) was determined as 186 nM.
